The text below walks through data of US11530181B2, “IL-6 inhibitors and methods of treatment” (University of Florida Research Foundation, Incorporated, priority 2018, dated 2022).

Common to all, as to assay type: cell-based, human
Assay [1] concerns STAT2 phosphorylation. Kind of assay: Western blot, STAT2 phosphorylation in MCF7. The settings on record: MCF7, pre-treatment 2, 3 and 4 hours. The method, then: FIG. 13. depicts the reduced effect on STAT1, STAT2, STAT4 and STAT6 phosphorylation by LLM418. The MCF7 cells were serum-starved overnight, then treated with LLM4 (15 μM) for 2, 3 and 4 hours. STAT1, STAT2, STAT4 and STAT6 phosphorylation were induced by INF-γ, INF-α and IL-4, respectively. The cells were harvested at 30 minutes and analyzed by western blot assays.
(§1) Cells were harvested and lysed in cold radioimmunoprecipitation assay (RIPA) lysis buffer containing proteasome inhibitor cocktail and phosphatase inhibitor cocktail. The protein concentrations were determined using the BCA Protein Assay kit. After adding the loading buffer and boiling at 95° C. for 10 minutes, equivalent amounts of proteins were loaded on and separated by SDS-PAGE, and then were transferred to PVDF membranes. Membranes were probed with primary antibodies (1:1000) against phospho-STAT3 (Tyr705), STAT3, phospho-STAT1 (Tyr701), STAT1, phospho-STAT6 (Tyr 641), STAT6, and GAPDH, respectively, and horseradish peroxidase (HRP)-conjugated secondary antibody (1:10000) (Cell Signaling Technology, Beverly, Mass.). Membranes were analyzed using Enhanced Chemiluminescence Plus reagents and either scanned with the Storm Scanner (Amersham Pharmacia Biotech, Inc., Piscataway, N.J.) or imaged with ChemiDoc MP imaging system (Bio-Rad, Hercules, Calif.). […] The cells were harvested after 30 minutes and analyzed by Western blot.

Assay [2] deals with SUM159 breast cancer cell line. Kind of assay: MTT cell viability assay, SUM159. The settings on record: Homo sapiens, SUM159, 48 h, SUM159 (high IL-6), 0% FBS medium. A general note: Tetrazolium dyes change colour on reduction, which living cells bring about.
Assay [3] concerns CNTF induced STAT3 phosphorylation. Kind of assay: Western blot, CNTF induced STAT3 phosphorylation in MCF7. The conditions noted are these: MCF7, 15 μM, 2, 3 and 4 hours. As to the method: as §1
MCF7 breast cancer cells were seeded in 10 cm plates (1 million cells per plate) and allowed to adhere overnight. […] The cells were harvested after 30 minutes and analyzed by western blotting.
In general terms: In western blotting, separated proteins are transferred to a membrane and probed.

Assay [4] has as its system MCF7 breast cancer cell line. Kind of assay: MTT cell viability assay, MCF7. The conditions noted are these: Homo sapiens; MCF7 (low IL-6), 48 h, 0% FBS medium. The method, then:
Human breast cancer cell lines MCF7, MDA-MB-231 and SUM159 were maintained in Dulbecco's modified Eagle medium (DMEM). Human pancreatic cancer cell line BxPC-3 was maintained in RPMI 1640 medium. Human pancreatic cancer cell line Capan-1 was maintained in Iscove's Modified Dulbecco's Medium (IMEM). All media were supplemented with 10% FBS and 1% penicillin/streptomycin, and cells were incubated in a humidified 37° C. incubator with 5% CO2. PE/CA-PJ49 cell line was purchased from external sources and maintained according to manufacturer's protocol.
Cell viability was evaluated by using the MTT assay in triple replicates in one experiment and repeated for three times. Cancer cells were seeded in 96-well plates at a density of 3,000 cells per well. The cells were incubated at 37° C. for a period of 24 hours. […] After incubation for 48 or 72 hours, a stock solution of MTT (0.5 mg/ml) was then added to each well containing the treated cells, followed by incubation at 37° C. for 3 h. After removal of medium, the MTT dye was dissolved with spectrophotometric grade DMSO and the absorbance was read at 570 nm. The IC50 value is determined by interpolation based on the absorbance value halfway between positive and negative controls. […]

As for `O=C(Nc1ccccc1-c1ccn[nH]1)c1ccc(OCCN2CCCCC2)cc1` [LLM418, N-(2-(1H-pyrazol-5-yl)phenyl)-4-(2-(piperidin-1-yl)ethoxy)benzamide], the “effect on STAT2 phosphorylation” value in assay [1] is reported as “little effect”.

In general, IC50 refers to the midpoint of a concentration-inhibition curve. A low value points to greater potency in that assay. Take `O=C(Nc1cc(F)ccc1-n1cccc1)c1ccc(OCCCN2CCCCC2)cc1` [LLM4, N-(5-fluoro-2-(1H-pyrrol-1-yl)phenyl)-4-(3-(piperidin-1-yl)propoxy)benzamide]: the IC50 is 40 nM in assay [2] and 4510 nM in assay [4]. Besides, the “CNTF induced STAT3 phosphorylation” value in assay [3] is on record as “remain intact”.
